Reference: the supplement of paper PMC11061612

How the values were obtained:
Assay in all cases: combination Emax (second highest fraction inhibited in the dose matrix, 72 h); higher = more inhibition; extreme values may be limits of the assay
[1] = tested on: 42-MG-BA (Glioblastoma)
In short: (§1)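 After 24 hours at 37°C and 5% CO2 in 1536-well plates, cells in DMEM/F12 or RPMI plus 10% FBS received two-drug dose matrices for 72 hours. Viability came from CellTiter-Glo 2.0 luminescence and was scaled as inhibition, anchored at 0 by vehicle wells and at 1 by blank wells. Combination Emax is taken as the second-highest inhibition in the matrix, and Bliss excess as the observed combination effect less EA + EB − EA·EB, with EA and EB the single-agent effects.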

[2] = tested on: AGS (Gastric Carcinoma)
In short: as §1

[3] = tested on: B-CPAP (Thyroid Gland Carcinoma)
In short: as §1

[4] = tested on: CCRF-CEM (T-Lymphoblastic Leukemia)
In short: as §1

[5] = tested on: COLO-205 (Colorectal Carcinoma)
In short: as §1

[6] = tested on: CaR-1 (Colorectal Carcinoma)
In short: as §1

[7] = tested on: DEL (T-Cell Non-Hodgkin's Lymphoma)
In short: as §1

[8] = tested on: EC-GI-10 (Esophageal Squamous Cell Carcinoma)
In short: as §1

[9] = tested on: ES4 (Ewing's Sarcoma)
In short: as §1

[10] = tested on: HO-1-N-1 (Oral Cavity Carcinoma)
In short: as §1

[11] = tested on: HuP-T4 (Pancreatic Carcinoma)
In short: as §1

[12] = tested on: LU-135 (Small Cell Lung Carcinoma)
In short: as §1

[13] = tested on: NB10 (Neuroblastoma)
In short: as §1

[14] = tested on: NCI-H2085 (Non-Small Cell Lung Carcinoma)
In short: as §1

[15] = tested on: NCI-H82 (Small Cell Lung Carcinoma)
In short: as §1

[16] = tested on: OVCA420 (Ovarian Carcinoma)
In short: as §1

[17] = tested on: TCCSUP (Bladder Carcinoma)
In short: as §1

[18] = tested on: TE-15 (Esophageal Squamous Cell Carcinoma)
In short: as §1

[19] = tested on: UM-UC-3 (Bladder Carcinoma)
In short: as §1

SMILES	combination Emax [1]	combination Emax [2]	combination Emax [3]	combination Emax [4]	combination Emax [5]	combination Emax [6]	combination Emax [7]	combination Emax [8]	combination Emax [9]	combination Emax [10]	combination Emax [11]	combination Emax [12]	combination Emax [13]	combination Emax [14]	combination Emax [15]	combination Emax [16]	combination Emax [17]	combination Emax [18]	combination Emax [19]
CCN(CCO)CCCOc1ccc2c(Nc3cc(CC(=O)Nc4cccc(F)c4)[nH]n3)ncnc2c1 [AZD2811] + C[C@@H]1COCCN1C2=NC(=NC(=C2)C3(CC3)[S@](=N)(=O)C)C4=C5C=CNC5=NC=C4 [AZD6738] (first compound max 1 µM, 7x7, partner max 10 µM)	0.568	0.605	0.407	1	0.849	0.469	0.99	0.824	0.666	0.858	0.424	0.929	0.771	0.844	0.922	0.443	0.604	0.731	0.429
CCN(CCO)CCCOc1ccc2c(Nc3cc(CC(=O)Nc4cccc(F)c4)[nH]n3)ncnc2c1 [AZD2811] + O=C(c1cc(Cc2n[nH]c(=O)c3ccccc23)ccc1F)N1CCN(C(=O)C2CC2)CC1 [Olaparib] (first compound max 1 µM, 7x7, partner max 10 µM)	0.464	0.302	0.231	1	0.868	0.19	0.823	0.551	0.47	0.824	0.289	0.88	0.386	0.62	0.615	0.137	0.268	0.25	0.305
C[C@@H]1COCCN1c1cc(C2([S@](C)(=N)=O)CC2)nc(-c2ccnc3[nH]ccc23)n1 [AZD6738] + O=C(c1cc(Cc2n[nH]c(=O)c3ccccc23)ccc1F)N1CCN(C(=O)C2CC2)CC1 [Olaparib] (first compound max 10 µM, 7x7, partner max 10 µM)	0.576	0.604	0.498	1	0.301	0.441	0.993	0.747	0.817	0.839	0.331	0.604	0.811	0.43	0.921	0.364	0.646	0.738	0.584
Cc1cc2ncnn2cc1Nc1ncc2c(n1)n(C1CCOCC1)c(=O)n2C [AZD7648] + C=CCn1c(=O)c2cnc(Nc3ccc(N4CCN(C)CC4)cc3)nc2n1-c1cccc(C(C)(C)O)n1 [AZD1775] (first compound max 10 µM, partner max 1 µM)	0.439	0.736	0.479	1	0.678	0.551	1	0.78	0.441	0.532	0.288	0.56	0.594	0.512	0.853	0.418	0.375	0.565	0.287
Cc1cc2ncnn2cc1Nc1ncc2c(n1)n(C1CCOCC1)c(=O)n2C [AZD7648] + CCN(CCO)CCCOc1ccc2c(Nc3cc(CC(=O)Nc4cccc(F)c4)[nH]n3)ncnc2c1 [AZD2811] (first compound max 10 µM, 7x7, partner max 1 µM)	0.472	0.529	0.283	1	0.897	0.472	0.727	0.44	0.279	0.826	0.342	0.893	0.335	0.717	0.595	0.232	0.387	0.283	0.298
Cc1cc2ncnn2cc1Nc1ncc2c(n1)n(C1CCOCC1)c(=O)n2C [AZD7648] + CN(C)CCCOc1ccc(-c2ccc3ncc4c(c3c2)n(C2CCOCC2)c(=O)n4C)cn1 [AZD0156] (first compound max 10 µM, 7x7, partner max 1 µM)	0.398	0.397	0.286	0.521	0.39	0.266	0.412	0.161	0.0963	0.3	0.261	0.172	0.307	0.234	0.293	0.262	0.197	0.236	0.236
Cc1cc2ncnn2cc1Nc1ncc2c(n1)n(C1CCOCC1)c(=O)n2C [AZD7648] + C[C@@H]1COCCN1C2=NC(=NC(=C2)C3(CC3)[S@](=N)(=O)C)C4=C5C=CNC5=NC=C4 [AZD6738] (first compound max 10 µM, 7x7, partner max 10 µM)	0.692	0.682	0.439	0.997	0.266	0.649	0.977	0.517	0.686	0.706	0.358	0.552	0.801	0.608	0.899	0.509	0.569	0.713	0.41
Cc1cc2ncnn2cc1Nc1ncc2c(n1)n(C1CCOCC1)c(=O)n2C [AZD7648] + O=C(c1cc(Cc2n[nH]c(=O)c3ccccc23)ccc1F)N1CCN(C(=O)C2CC2)CC1 [Olaparib] (first compound max 10 µM, 7x7, partner max 10 µM)	0.464	0.204	0.265	0.454	0.0328	0.111	0.693	0.341	0.572	0.324	0.141	0.394	0.426	0.036	0.333	0.0465	0.134	0.182	0.145
COc1cccc2c1C(=O)c1c(O)c3c(c(O)c1C2=O)C[C@@](O)(C(=O)CO)C[C@@H]3O[C@H]1C[C@H](N)[C@H](O)[C@H](C)O1 [Doxorubicin] + Cc1cc2ncnn2cc1Nc1ncc2c(n1)n(C1CCOCC1)c(=O)n2C [AZD7648] (first compound max 1 µM, 7x7, partner max 10 µM)	0.925	0.986	0.941	1	0.727	0.807	1	0.693	0.945	0.979	0.657	0.817	0.863	0.546	0.949	0.224	0.665	0.721	0.802
COc1cccc(OCCCN)c1-c1cc(Nc2cnc(C#N)cn2)n[nH]1 [Prexasertib] + C=CCn1c(=O)c2cnc(Nc3ccc(N4CCN(C)CC4)cc3)nc2n1-c1cccc(C(C)(C)O)n1 [AZD1775] (first compound max 1 µM, partner max 1 µM)	0.941	0.901	0.874	1	0.908	0.797	1	0.956	0.893	0.985	0.882	0.655	0.953	0.94	0.996	0.726	0.748	0.866	0.807
COc1cccc(OCCCN)c1-c1cc(Nc2cnc(C#N)cn2)n[nH]1 [Prexasertib] + CN(C)CCCOc1ccc(-c2ccc3ncc4c(c3c2)n(C2CCOCC2)c(=O)n4C)cn1 [AZD0156] (first compound max 1 µM, 7x7, partner max 1 µM)	0.937	0.537	0.686	1	0.673	0.627	1	0.735	0.912	0.913	0.84	0.554	0.928	0.92	1	0.676	0.689	0.831	0.537
COc1cccc(OCCCN)c1-c1cc(Nc2cnc(C#N)cn2)n[nH]1 [Prexasertib] + C[C@@H]1COCCN1C2=NC(=NC(=C2)C3(CC3)[S@](=N)(=O)C)C4=C5C=CNC5=NC=C4 [AZD6738] (first compound max 1 µM, 7x7, partner max 10 µM)	0.904	0.663	0.742	1	0.565	0.696	1	0.713	0.879	0.898	0.808	0.634	0.863	0.872	0.995	0.692	0.712	0.874	0.615
COc1cccc(OCCCN)c1-c1cc(Nc2cnc(C#N)cn2)n[nH]1 [Prexasertib] + Cc1cc2ncnn2cc1Nc1ncc2c(n1)n(C1CCOCC1)c(=O)n2C [AZD7648] (first compound max 1 µM, 7x7, partner max 10 µM)	0.908	0.48	0.73	1	0.675	0.67	1	0.713	0.93	0.927	0.839	0.584	0.918	0.825	1	0.699	0.704	0.831	0.56
COc1cccc(OCCCN)c1-c1cc(Nc2cnc(C#N)cn2)n[nH]1 [Prexasertib] + O=C(c1cc(Cc2n[nH]c(=O)c3ccccc23)ccc1F)N1CCN(C(=O)C2CC2)CC1 [Olaparib] (first compound max 1 µM, 7x7, partner max 10 µM)	0.908	0.426	0.763	1	0.573	0.638	1	0.78	0.887	0.938	0.851	0.493	0.797	0.587	0.925	0.733	0.731	0.842	0.629
